Test results: patent US20030186424A1, “Reagents and methods for identifying and modulating expression of genes regulated by CDK inhibitors” (priority 2001, published 2003)

B1: Bax TATA box core promoter probe (dsDNA)
DNA 1: ACTCAGTTTTTAGTCATCTATAACGTCCTGCCTGGAAGCATGCTATTTTGGGCCTCTGAGCTT
DNA 2: AAGCTCAGAGGCCCAAAATAGCATGCTTCCAGGCAGGACGTTATAGATGACTAAAAACTGAGT

Key:
CRD1 domain of p300 = experiment: CRD1 dependent stimulation of transcription (Gal4 p300 CRD1+ luciferase reporter); format: cell-based, human; conditions: treatment of cells with the compound; data not shown
Protocol: Calcium phosphate transfections of U-2 OS cells were performed substantially as disclosed in Webster & Perkins (1999, Mol. Cell. Biol. 19: 3485-3495). Briefly, transfections were performed in 6 cm dishes using 2 μg of reporter plasmid, 1.6 μg of RSV p21 or RSV ADH control plasmid and 5 ng of Gal4 expression plasmid (except where indicated in the figure legend). Cells were harvested approximately 40 hours after transfection. Lysates were prepared using passive lysis buffer (Promega) and luciferase assays were performed according to manufacturer's instructions (Promega). All experiments were performed separately, a minimum of three times before calculating means and standard errors as shown in the Figures. Relative luciferase levels were calculated by referring to the level of activity seen with the Gal4 DNA-binding domain (amino acids 1-147) not fused to a heterologous activator, except when specifically referred to.
Wild type p21 and the two mutants were cotransfected with Gal4 p300^CRD+ (192-1044) and Gal4 E1B luciferase into U-2 OS cells. Both mutants stimulated transcriptional activity to the same extent as the wild type protein (FIG. 8B), consistent with a Cyclin/CDK independent role for p21 regulation of CRD1. […]

TBP + TFIIB complex = TBP + TFIIB complex (UniProt P20226;Q00403 P20226:1-339,Q00403:1-316); experiment: EMSA; no complex seen; 30 C, 4 mM MgCl2, 55 mM KCl; exact probe span not stated; conditions: tags: gift from Stefan Roberts, University of Manchester; label: 32P
Sequence of TBP + TFIIB complex (P20226 whole entry, chain 1 of 2): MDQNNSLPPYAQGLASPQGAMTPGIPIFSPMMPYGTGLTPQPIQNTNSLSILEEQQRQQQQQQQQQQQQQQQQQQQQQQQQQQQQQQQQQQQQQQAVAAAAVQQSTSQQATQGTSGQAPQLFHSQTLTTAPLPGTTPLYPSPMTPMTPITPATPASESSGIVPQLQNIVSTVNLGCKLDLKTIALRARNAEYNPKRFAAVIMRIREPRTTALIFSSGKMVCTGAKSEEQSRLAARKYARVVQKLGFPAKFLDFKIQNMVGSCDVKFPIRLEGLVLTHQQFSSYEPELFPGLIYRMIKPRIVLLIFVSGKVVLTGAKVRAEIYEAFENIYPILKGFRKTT
Sequence of TBP + TFIIB complex (Q00403 whole entry, chain 2 of 2): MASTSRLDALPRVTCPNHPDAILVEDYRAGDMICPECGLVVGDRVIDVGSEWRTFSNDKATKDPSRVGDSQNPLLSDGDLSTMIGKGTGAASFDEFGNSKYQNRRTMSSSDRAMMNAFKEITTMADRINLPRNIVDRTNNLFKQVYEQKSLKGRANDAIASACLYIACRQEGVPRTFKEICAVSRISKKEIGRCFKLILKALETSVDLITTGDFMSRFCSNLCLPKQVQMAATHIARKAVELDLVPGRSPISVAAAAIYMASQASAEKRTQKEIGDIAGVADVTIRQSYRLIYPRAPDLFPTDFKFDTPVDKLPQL
Text: The sequence of the TATA box and surrounding sequences was known in the art to influence binding of basal transcription factors (Lieberman et al., 1997, Mol. Cell. Biol. 17: 6624-6632). Since the Bax TATA sequence differs considerably from AdML, these constructs were used to determine whether the observed structural differences would be associated with differential binding of the core transcription factors TBP (TATA binding protein) and TFIIB. In these experiments, purified recombinant TBP and TFIIB were therefore incubated with ³²P labeled probes containing the AdML and Bax TATA boxes and analyzed by electrophoretic mobility shift assay (EMSA), performed as follows. ³²P labeled probe DNA was incubated for 1 hr at 30° C. with ˜1 ng purified recombinant TBP, ˜2 ng purified recombinant TFIIB (both proteins gifts from Dr Stefan Roberts, University of Manchester), 5 μg BSA, 250 ng poly(dG.dC) competitor and 12 μL buffer (having a formula of 10 mM Hepes pH7.9, 0.2 mM EDTA, 55 mM KCl, 4 mM MgCl₂, 5 mM ammonium sulphate, 8% v/v glycerol, 2% v/v polyethylene glycol, 5 mM β-mercaptoethanol, and 0.2 mM PMSF). Samples were then resolved using a 4.8% acrylamide gel (in 0.5×TB buffer). The gel was then dried and exposed to film.

Row | Molecule | CRD1 dependent stimulation of transcription (CRD1 domain of p300) | binding result (TBP + TFIIB complex)
1 | NC(Cn1ccc(=O)c(O)c1)C(=O)O (stereo not drawn) [mimosine] | does not result in CRD1 dependent stimulation of transcription | –
2 | CC[C@H](CO)Nc1nc(NCc2ccccc2)c2ncn(C(C)C)c2n1 [roscovitine] | does not result in CRD1 dependent stimulation of transcription | –
3 | B1 | – | no binding
